Experimental data: article PMC4639711, “The Helicase Activity of Hyperthermophilic Archaeal MCM is Enhanced at High Temperatures by Lysine Methylation” (Frontiers in Microbiology, 2015)

What was measured:
Assay type in all cases: biochemical
aKMT4 [1] = biological target: T1, aKMT4 (Saccharolobus islandicus, UniProt F0NBH8, G38R); experiment: 3H-methyl incorporation into sisMCM, SDS-PAGE and autoradiography; settings: methyl acceptor sisMCM (2 μM), 50°C, labelled compound, methyltransferase-deficient mutant, no activity seen
T1 construct: gene SiRe_1449; recombinant, overexpressed in E. coli BL21(DE3) CodonPlus RIL; purified as in Niu et al. 2013; apparent mass 18 kDa
T1 sequence (F0NBH8 whole entry G38R): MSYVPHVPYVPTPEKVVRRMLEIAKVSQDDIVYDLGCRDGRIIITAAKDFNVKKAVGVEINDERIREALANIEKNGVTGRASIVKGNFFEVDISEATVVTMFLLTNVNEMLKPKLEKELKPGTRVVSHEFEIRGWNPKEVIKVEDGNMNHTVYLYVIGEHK

aKMT4 [2] = biological target: T2, aKMT4 (Saccharolobus islandicus, UniProt F0NBH8); experiment: as above; settings: methyl acceptor sisMCM (2 μM), also automethylation, 50°C, labelled compound
T2 construct: gene SiRe_1449
T2 sequence (F0NBH8 whole entry): as the sequence (F0NBH8 whole entry G38R) above, with R38G counted along it

sisMCM (MCM) = biological target: T3, sisMCM (MCM) (Saccharolobus islandicus, UniProt F0NF15, K280M/K281M); experiment: ATPase assay, [γ-32P]ATP, PEI cellulose TLC; settings: 1 mM ATP, 100 nM protein, 10 mM magnesium acetate, pH 8.0, 65°C, 30 min; labelled compound; methylation-mimic mutant
T3 construct: recombinant, pGEX-6P-1 in E. coli BL21(DE3) CodonPlus RIL; GST tag removed with PreScission protease; apparent mass 75 kDa; hexamer
T3 sequence (F0NF15 entry or part of it K280M/K281M): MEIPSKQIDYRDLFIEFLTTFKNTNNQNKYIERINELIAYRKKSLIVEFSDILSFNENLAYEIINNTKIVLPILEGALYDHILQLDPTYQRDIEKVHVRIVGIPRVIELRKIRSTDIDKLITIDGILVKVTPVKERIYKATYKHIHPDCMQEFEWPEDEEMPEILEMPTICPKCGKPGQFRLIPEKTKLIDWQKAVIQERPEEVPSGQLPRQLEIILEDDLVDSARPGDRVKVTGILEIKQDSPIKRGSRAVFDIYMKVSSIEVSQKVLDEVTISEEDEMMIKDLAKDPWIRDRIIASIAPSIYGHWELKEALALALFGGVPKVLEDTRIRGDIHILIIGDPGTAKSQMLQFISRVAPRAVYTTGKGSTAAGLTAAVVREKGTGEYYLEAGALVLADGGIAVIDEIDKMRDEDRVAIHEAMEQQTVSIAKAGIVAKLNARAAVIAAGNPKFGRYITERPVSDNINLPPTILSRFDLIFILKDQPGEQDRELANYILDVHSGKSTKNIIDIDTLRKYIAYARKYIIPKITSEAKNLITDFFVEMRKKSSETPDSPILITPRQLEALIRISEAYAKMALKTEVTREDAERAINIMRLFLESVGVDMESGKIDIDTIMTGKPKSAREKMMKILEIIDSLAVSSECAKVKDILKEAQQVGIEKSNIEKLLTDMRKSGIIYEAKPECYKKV

SMILES | 3H-methyl incorporation into sisMCM, SDS-PAGE and autoradiography (aKMT4 [1]) | 3H-methyl incorporation into sisMCM, SDS-PAGE and autoradiography (aKMT4 [2]) | ATPase assay, [γ-32P]ATP, PEI cellulose TLC (sisMCM (MCM))
C[S+](CC[C@H](N)C(=O)O)C[C@H]1O[C@@H](n2cnc3c(N)ncnc32)[C@H](O)[C@@H]1O (stereo partly drawn) [AdoMet] | no tritium incorporation was observed in the presence of a methyltransferase-deficient mutant aKMT4-G38R | We noticed potent ^3H-methyl incorporation into sisMCM protein as well as aKMT4 itself | –
Nc1ncnc2c1ncn2[C@@H]1O[C@H](COP(=O)(O)OP(=O)(O)OP(=O)(O)O)[C@@H](O)[C@H]1O [ATP] | – | – | As for ATPase, K280M/K281M showed moderately decreased activity as wild type
